Key:
[1] = Single oral dose pharmacokinetic study in male rats; type: in vivo; conditions: male rats (n=4 per group), suspension in 4% hydroxypropyl methylcellulose, nominal dose 100 mg/kg, FIG. 5
Description: (FIG. 5). […] To generate the data shown in FIG. 5, a single oral dose pharmacokinetic study was conducted as a two-way parallel design in male rats (n=4 per group). For each form a suspension was prepared in 4% hydroxypropyl methylcellulose with nominal dose as 100 mg/kg.

[2] = Hygroscopicity by dynamic vapor sorption (DVS); type: physicochemical
Description: Hygroscopicity was evaluated by using a dynamic vapor sorption instrument (DVI). The experiment was performed under controlled temperature conditions with temperature set at 25° C. Following a drying step at 40° C. for 60 minutes, samples were subjected to water vapor starting from 5% relative humidity with stepwise increase up to 95% relative humidity in 5% increments. The desorption experiment was performed under the same conditions with a stepwise decrease in relative humidity. Maximum equilibrium time was held as 180 minutes with equilibrium criteria as 0.005 weight % in 5 min.

moisture uptake ([2]; ambient temperature, 95% relative humidity, DVS measurement) [weight %]	hygroscopicity according to the European Pharmacopeia classification ([2]; dynamic vapor sorption, 25° C.)	Compound	mean plasma concentration-time profile [1]	crystalline form by PXRD after the vapor sorption analysis ([2]; after sorption/desorption between 5% and 95% relative humidity)
0.04	non-hygroscopic	CN1C(=N)N[C@](C)(c2cc(NC(=O)c3ccc(F)cn3)ccc2F)CS1(=O)=O [Crystalline Anhydrous Form 1]	essentially identical to that of the corresponding amorphous HCl salt form	retain the identical Crystalline Anhydrous Form 1
–	–	CN1C(N)=NC(C)(c2cc(NC(=O)c3ccc(F)cn3)ccc2F)CS1(=O)=O.Cl (centres unmarked) [amorphous HCl salt form]	excellent	–
